# Measured values published in patent publication US20250091989A1, “SMALL MOLECULE PROTEIN SYNTHESIS MODULATORS” (Interdict Bio, Inc., priority 2023, published 2025).
# Assays:
# MYC = experiment: In vitro transcription-translation (IVTT) reporter assay, MYC test sequence; assay type: biochemical; details: HeLa S3 lysate, sfGFP/mCherry ratio, 2 hrs at 30° C.
# Excerpt: (§1) All reporter constructs have been cloned into the pT7CFE1-CHis plasmid (ThermoFisher #88860) using Gibson assembly procedures (NEB #E2611L). The parental pT7CFE1-CHis plasmid contains an EMCV IRES at the 5′UTR for translation initiation, a multiple-cloning site (MCS) for gene insertion, an optional C-terminal His-epitope tag, and polyA sequence in the 3′UTR to regulate mRNA stability. All reporters are designed to be inserted at the MCS to include a red fluorescent protein (mCherry), P2A self-cleaving peptide which releases the preceding mCherry protein product, and a fusion open reading frame containing a 3×FLAG epitope, a peptide sequence of interest (TEST), and green fluorescent protein (sfGFP).
# (§2) Construct Plasmid Preparation: All plasmids are isolated from MACH1 cells (ThermoFisher) grown overnight in ampicillin-containing luria broth, and purified using ZymoPure Express Plasmid Midiprep Kit (Zymo Research). Constructs are sequenced verified and diluted to a working concentration of 110 ng/μL.
# (§3) HeLa S3 Lysate Preparation: HeLa S3 cell pellets are acquired from Ipracell/Ipratech (Belgium) and shipped as 4 mL frozen cell pellets on dry ice for storage at −80° C. until use. The procedure for lysate preparation is as follows. Prepare 1× Lysis Buffer, cold and stored on ice:
# (§4) Each preparation takes 8 cell pellets (4 ml packed volume each, approximately 1.0×10^9 cells per pellet). Thaw cell pellets from −80° C. on ice for 90 mins. Lay pellets horizontally on top of the ice and rotate every 30 mins to ensure even thawing. Once thawed, add 4 mL of cold lysis buffer to each pellet, and using a serological pipet, gently pipet up and down to break up clumps. Incubate resuspended cells in ice for an additional 30 mins (plunged into ice). During 30 min incubation, rinse and RNase-zap (Ambion) glass dounces (use loose pestle “A”), gently dry and place on ice until needed. Prepare RNase-free Eppendorf tubes for spinning and for batch storage. Add batch labels to 1.5-1.7 mL RNase-free microcentrifuge tubes (labeling scheme below). Each batch will have an extra 1.5-1.7 mL RNase-free microcentrifuge tube for 40 μL of lysate, label the top of this tube (labeling scheme below). After 30 min incubation, transfer all 8 mL of cell pellet to dounce. Cell lysis is complete after douncing 100 times. Aliquot cell lysis into 1.5-1.7 mL temporary-microcentrifuge tubes. Place tubes in centrifuge with “fins” out, and spin at 1,200 xg for 5 mins. After the first spin use a 1 mL pipet to resuspend each tube and repeat spin. This acts as an additional lysis step, is more vigorous and increases lysate yield. During second spin get liquid N2 and a fresh conical tube on ice.
# (§5) After spin is complete, transfer supernatant (lysate) from microcentrifuge tubes into the 50 mL conical tube and keep on ice. Repeat steps 10-14 for all other cell pellets until completed. Once all cell lysate has been transferred to the 50 mL conical tube pipet to mix so the solution is homogenous. Transfer 1 mL of lysate into batch-labeled microcentrifuge tubes and flash freeze in liquid nitrogen. Be sure to pipet up and down to mix throughout transfer step. Place all tubes in the […] for long-term storage.
# (§6) In vitro transcription-translation assay setup: Each assay includes a master mix containing lysate and shared components, a 96-well plate containing compound titrations for testing, a 96-well DNA plate with reporter constructs to be tested, 96-well skirted PCR plates, and 96-well flat-bottom, black, fluorescent assay plates. […]
# ALK = experiment: In vitro transcription-translation (IVTT) reporter assay, ALK test sequence; assay type: biochemical; details: HeLa S3 lysate, sfGFP/mCherry ratio, 2 hrs at 30° C.
# Excerpt: as §1, §2, §3, §4, §5, §6
Structure (SMILES),IC50 (MYC),IC50 (ALK)
"COc1ccc(C[C@H]2NC[C@H](O)[C@H]2OC(=O)CCc2cn(C)cn2)cc1 [V187096, (2R,3S,4S)-4-hydroxy-2-[(4-methoxyphenyl)methyl]pyrrolidin-3-yl 3-(1-methylimidazol-4-yl)propanoate; trifluoroacetic acid]",< 10 µM,< 10 µM
"COc1ccc(C[C@H]2NC[C@H](O)[C@H]2OC(=O)c2ccc(F)c(S(=O)(=O)N(C)C)c2)cc1 [V000196, (2R,3S,4S)-4-hydroxy-2-[(4-methoxyphenyl)methyl]pyrrolidin-3-yl 3-(dimethylsulfamoyl)-4-fluorobenzoate]",> 30 µM,> 30 µM
"COc1ccc(C[C@H]2NC[C@H](O)[C@H]2OC(=O)[C@H]2CC[C@@H](O)CC2)cc1 [V186823, (2R,3S,4S)-4-hydroxy-2-[(4-methoxyphenyl)methyl]pyrrolidin-3-yl (1 s,4 s)-4-hydroxy cyclohexane-1-carboxylate]",> 30 µM,20 to 30 µM
"COc1ccc(C[C@H]2NC[C@H](O)[C@H]2OC(=O)CCn2ccc(=O)[nH]c2=O)cc1 [V186992, (2R,3S,4S)-4-hydroxy-2-[(4-methoxyphenyl)methyl]pyrrolidin-3-yl 3-(2,4-dioxo-3H-pyrimidin-1-yl)propanoate]",< 10 µM,< 10 µM
"O=C(Cc1cccc(F)c1)O[C@@H]1[C@@H](O)CN[C@@H]1Cc1ccc(-c2cncs2)cc1 [V192844, (2R,3S,4S)-4-hydroxy-2-{[4-(1,3-thiazol-5-yl)phenyl]methyl}pyrrolidin-3-yl 2-(3-fluorophenyl)acetate]",< 10 µM,
"CC(=O)O[C@@H]1[C@@H](O)CN[C@@H]1Cc1ccc(-c2cnco2)cc1 [V192987, (2R,3S,4S)-4-hydroxy-2-{[4-(1,3-oxazol-5-yl)phenyl]methyl}pyrrolidin-3-yl acetate]",< 10 µM,
"COc1ccc(C[C@H]2NC[C@H](O)[C@H]2OC(=O)Cc2nccs2)cc1 [V187052, (2R,3S,4S)-4-hydroxy-2-[(4-methoxyphenyl)methyl]pyrrolidin-3-yl 2-(1,3-thiazol-2-yl)acetate; trifluoroacetic acid]",< 10 µM,< 10 µM
"COc1ccc(C[C@H]2NC[C@H](O)[C@H]2OC(=O)Cc2ccc(N3CCOCC3)cc2)cc1 [V187134, (2R,3S,4S)-4-hydroxy-2-[(4-methoxyphenyl)methyl]pyrrolidin-3-yl 2-[4-(morpholin-4-yl)phenyl]acetate]",< 10 µM,< 10 µM
"O=C(C[C@@H]1CCNC1)O[C@@H]1[C@@H](O)CN[C@@H]1Cc1ccc(C(F)F)cc1 [V193046, (2R,3S,4S)-2-{[4-(difluoromethyl)phenyl]methyl}-4-hydroxypyrrolidin-3-yl 2-[(3S)-pyrrolidin-3-yl]acetate]",< 10 µM,
"O=C(CC[C@@H]1CCCN1)O[C@@H]1[C@@H](O)CN[C@@H]1Cc1ccc(-c2cncs2)cc1 [V192842, (2R,3S,4S)-4-hydroxy-2-{[4-(1,3-thiazol-5-yl)phenyl]methyl}pyrrolidin-3-yl 3-[(2S)-pyrrolidin-2-yl]propanoate]",< 10 µM,
"O=C(Cc1cccc(F)c1)O[C@@H]1[C@@H](O)CN[C@@H]1Cc1ccc(-c2cnco2)cc1 [V192843, (2R,3S,4S)-4-hydroxy-2-{[4-(1,3-oxazol-5-yl)phenyl]methyl}pyrrolidin-3-yl 2-(3-fluorophenyl)acetate]",< 10 µM,
"COc1ccc(C[C@H]2NC[C@H](O)[C@H]2OC(=O)CC[C@@H]2CCCN2)cc1 [V192931, (2R,3S,4S)-4-hydroxy-2-[(4-methoxyphenyl)methyl]pyrrolidin-3-yl 3-[(2S)-pyrrolidin-2-yl]propanoate]",< 10 µM,
"COc1ccc(C[C@H]2NC[C@H](O)[C@H]2OC(=O)Cn2cnnc2)cc1 [V187181, (2R,3S,4S)-4-hydroxy-2-[(4-methoxyphenyl)methyl]pyrrolidin-3-yl 2-(1,2,4-triazol-4-yl)acetate]",20 to 30 µM,< 10 µM
"O=C(CC1CC(F)(F)C1)O[C@@H]1[C@@H](O)CN[C@@H]1Cc1ccc(-c2cncs2)cc1 [V192840, (2R,3S,4S)-4-hydroxy-2-{[4-(1,3-thiazol-5-yl)phenyl]methyl}pyrrolidin-3-yl 2-(3,3-difluorocyclobutyl)acetate]",< 10 µM,
"CC(=O)O[C@@H]1[C@@H](O)CN[C@@H]1Cc1ccc(-c2nn[nH]n2)cc1 [V187008, (2R,3S,4S)-4-hydroxy-2-{[4-(2H−1,2,3,4-tetrazol-5-yl)phenyl]methyl}pyrrolidin-3-yl acetate; trifluoroacetic acid]",< 10 µM,< 10 µM
"O=C(CC1CC(F)(F)C1)O[C@@H]1[C@@H](O)CN[C@@H]1Cc1ccc(-c2cnco2)cc1 [V192387, (2R,3S,4S)-4-hydroxy-2-{[4-(1,3-oxazol-5-yl)phenyl]methyl}pyrrolidin-3-yl 2-(3,3-difluorocyclobutyl)acetate]",< 10 µM,
O=C(CC[C@@H]1CCCN1)O[C@@H]1[C@@H](O)CN[C@@H]1Cc1ccc(-c2cnco2)cc1 [V192841],< 10 µM,
"COc1ccc(C[C@H]2NC[C@H](O)[C@H]2OC(=O)C2(N)CCCC2)cc1 [V186782, (2R,3S,4S)-4-hydroxy-2-[(4-methoxyphenyl)methyl]pyrrolidin-3-yl 1-aminocyclopentane-1-carboxylate]",> 30 µM,> 30 µM
"COc1ccc(C[C@H]2NC[C@H](O)[C@H]2OC(=O)CC[C@H]2CNCCN2)cc1 [V041828, (2R,3S,4S)-4-hydroxy-2-[(4-methoxyphenyl)methyl]pyrrolidin-3-yl 3-[(2S)-piperazin-2-yl]propanoate]",> 30 µM,> 30 µM
"COc1ccc(C[C@H]2NC[C@H](O)[C@H]2OC(=O)CC[C@H]2CN(C)CCN2C)cc1 [V186854, (2R,3S,4S)-4-hydroxy-2-[(4-methoxyphenyl)methyl]pyrrolidin-3-yl 3-[(2S)-1,4-dimethylpiperazin-2-yl]propanoate; trifluoroacetic acid]",> 30 µM,> 30 µM
"COc1ccc(C[C@H]2NC[C@H](O)[C@H]2OC(=O)[C@@H]2CN(Cc3ccccc3)CC23CNC3)cc1 [V186717, (2R,3S,4S)-4-hydroxy-2-[(4-methoxyphenyl)methyl]pyrrolidin-3-yl (8S)-6-benzyl-2,6-diazaspiro[3.4]octane-8-carboxylate]",> 30 µM,> 30 µM
"COc1ccc(C[C@H]2NC[C@H](O)[C@H]2OC(=O)Cc2ccc(CC(C)C)cc2)cc1 [V187182, (2R,3S,4S)-4-hydroxy-2-[(4-methoxyphenyl)methyl]pyrrolidin-3-yl 2-[4-(2-methylpropyl)phenyl]acetate; trifluoroacetic acid]",> 30 µM,10 to 20 µM
"CC(=O)O[C@@H]1[C@@H](O)CN[C@@H]1Cc1ccc(OC(F)(F)F)cc1 [V187185, (2R,3S,4S)-4-hydroxy-2-{[4-(trifluoromethoxy)phenyl]methyl}pyrrolidin-3-yl acetate]",< 10 µM,
"O=C(C[C@@H]1CCNC1)O[C@@H]1[C@@H](O)CN[C@@H]1Cc1ccc(-c2cnco2)cc1 [V193047, (2R,3S,4S)-4-hydroxy-2-{[4-(1,3-oxazol-5-yl)phenyl]methyl}pyrrolidin-3-yl 2-[(3S)-pyrrolidin-3-yl]acetate]",< 10 µM,
"COc1ccc(C[C@H]2NC[C@H](O)[C@H]2OC(=O)CCc2ccccc2)cc1 [V187069, (2R,3S,4S)-4-hydroxy-2-[(4-methoxyphenyl)methyl]pyrrolidin-3-yl 3-phenylpropanoate]",< 10 µM,< 10 µM
